Assay results published in PubChem BioAssay AID652267 (Sanford-Burnham Center for Chemical Genomics, 2013).
The source made the active and inactive calls.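 How the source made its calls: active means compound that lowers ATP signal in parent HT1080 cells at potency within fivefold of its primary screen potency; inactive means the rest.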

System: HT1080 viability, ATPLite luminescence, overnight
Assay: viability loss in HT1080 cells – cell-based, ATPLite luminescence, cytotoxicity control for MT1-MMP activation inhibitor project, SAR follow-up (AID 652267)

| SMILES | IC50 |
| --- | --- |
| Cc1c(C(=O)OCC(=O)NCC2CCCO2)oc2ccccc12 (stereo unspecified) | 30.3 µM (inactive) |
| O=Nc1c(-c2c(O)[nH]c3cc(Br)ccc23)[nH]c2ccccc12 | 36.9 µM (inactive) |
| CN1/C(=C/C=C/c2n(C)c3cc([N+](=O)[O-])c([N+](=O)[O-])cc3[n+]2C)C(C)(C)c2ccccc21 | 40.2 µM (inactive) |
| CCn1c(=O)c(=O)[nH]c2cc(C(=O)NC3CCCc4ccccc43)ccc21 (stereo unspecified) | 15.5 µM |
| COc1ccc(C)cc1Nc1nc(-c2c(C)[nH]c3ccccc23)cs1 | > 80 µM (inactive) |
| CN1/C(=C\C(=O)c2cncc(Br)c2)C(C)(C)c2ccccc21 | > 80 µM (inactive) |
